Results taken from patent US12435044B2, “Pyridazinone herbicides and pyridazinone intermediates used to prepare a herbicide” (FMC Corporation, priority 2018, dated 2025).

Columns and labels:
Assay type in all cases: in vivo
[1] = test system: common ragweed (AMBEL; Ambrosia artemisiifolia); assay: Test J pre-/postemergence, mixtures of Cpd. No. 20 with (b15C2)
Excerpt: (§1) This test evaluated the effect of mixtures of Cpd. No. 20 with (b15C2) on several plant species. Seeds of plant species selected from corn (ZEAMD; Zea mays, cv. ‘Pioneer 1184’), soybean (GLXMA; Glycine max, cv. Pioneer 35T58), giant foxtail (SETFA; Setaria faberi), palmer amaranth (AMAPA; Amaranthus palmeri), common waterhemp (AMATU; Amaranthus rudis), mare's tail (ERICA; Conyza canadensis), and common ragweed (AMBEL; Ambrosia artemisiifolia) were planted in pots containing Tama Silt Loam soil and treated preemergence with a directed soil spray using test chemicals formulated in a non-phytotoxic solvent mixture which included a surfactant.
(§2) At the same time, plants selected from these crop and weed species were planted in pots containing Redi-Earth® planting medium (Scotts Company, 14111 Scottslawn Road, Marysville, Ohio 43041) comprising spaghnum peat moss, vermiculite, wetting agent and starter nutrients and treated postemergence with test chemicals formulated in the same manner. Plants ranged in height from 2 to 10 cm and were in the one- to two-leaf stage for the postemergence treatment. Treated plants and untreated controls were maintained in a greenhouse for approximately 14-21 d, after which time all treated plants were compared to untreated controls and visually evaluated for injury. Plant response ratings, summarized in Tables J1 & J2, are based on a 0 to 100 scale where 0 is no effect and 100 is complete control. A dash (-) response means no test result. Test results are presented as a mean of 4 reps.

[2] = test system: common waterhemp (AMATU; Amaranthus rudis); assay: as above
Excerpt: as §1, §2

[3] = test system: corn (ZEAMD; Zea mays, cv. ‘Pioneer 1184’); assay: as above
Excerpt: as §1, §2

[4] = test system: giant foxtail (SETFA; Setaria faberi); assay: as above
Excerpt: as §1, §2

[5] = test system: mare's tail (ERICA; Conyza canadensis); assay: as above
Excerpt: as §1, §2

[6] = test system: palmer amaranth (AMAPA; Amaranthus palmeri); assay: as above
Excerpt: as §1, §2

[7] = test system: soybean (GLXMA; Glycine max, cv. Pioneer 35T58); assay: as above
Excerpt: as §1, §2

[8] = test system: common ragweed (AMBEL; Ambrosia artemisiifolia); assay: Test K pre-/postemergence, mixtures of Cpd. No. 20 with metribuzin or rimsulfuron
Excerpt: as §1, with “metribuzin or rimsulfuron” for “(b15C2)”
as §2, with “K1 to K4,” for “J1 & J2,”

[9] = test system: common waterhemp (AMATU; Amaranthus rudis); assay: as above
Excerpt: as §1, with “metribuzin or rimsulfuron” for “(b15C2)”
as §2, with “K1 to K4,” for “J1 & J2,”

[10] = test system: corn (ZEAMD; Zea mays, cv. ‘Pioneer 1184’); assay: as above
Excerpt: as §1, with “metribuzin or rimsulfuron” for “(b15C2)”
as §2, with “K1 to K4,” for “J1 & J2,”

[11] = test system: giant foxtail (SETFA; Setaria faberi); assay: as above
Excerpt: as §1, with “metribuzin or rimsulfuron” for “(b15C2)”
as §2, with “K1 to K4,” for “J1 & J2,”

[12] = test system: mare's tail (ERICA; Conyza canadensis); assay: as above
Excerpt: as §1, with “metribuzin or rimsulfuron” for “(b15C2)”
as §2, with “K1 to K4,” for “J1 & J2,”

[13] = test system: palmer amaranth (AMAPA; Amaranthus palmeri); assay: as above
Excerpt: as §1, with “metribuzin or rimsulfuron” for “(b15C2)”
as §2, with “K1 to K4,” for “J1 & J2,”

[14] = test system: soybean (GLXMA; Glycine max, cv. Pioneer 35T58); assay: as above
Excerpt: as §1, with “metribuzin or rimsulfuron” for “(b15C2)”
as §2, with “K1 to K4,” for “J1 & J2,”

O=C(CCC(F)(F)F)c1c(Cl)cccc1Oc1ncc(Cl)cn1 [(b15C2), 1-[2-chloro-6-[(5-chloro-2-pyrimidinyl)oxy]phenyl]-4,4,4-trifluoro-1-butanone, reference compound]
AMBEL plant response rating, 0 to 100 scale ([1]; postemergence, 8 g a.i./ha): 5
AMBEL plant response rating, 0 to 100 scale ([1]; postemergence, 16 g a.i./ha): 3
AMBEL plant response rating, 0 to 100 scale ([1]; postemergence, 31 g a.i./ha): 10
AMBEL plant response rating, 0 to 100 scale ([1]; postemergence, 62 g a.i./ha): 20
AMBEL plant response rating, 0 to 100 scale ([1]; preemergence, 8 g a.i./ha): 0
AMBEL plant response rating, 0 to 100 scale ([1]; preemergence, 16 g a.i./ha): 0
AMBEL plant response rating, 0 to 100 scale ([1]; preemergence, 31 g a.i./ha): 0
AMBEL plant response rating, 0 to 100 scale ([1]; preemergence, 62 g a.i./ha): 15
AMATU plant response rating, 0 to 100 scale ([2]; postemergence, 8 g a.i./ha): 43
AMATU plant response rating, 0 to 100 scale ([2]; postemergence, 16 g a.i./ha): 55
AMATU plant response rating, 0 to 100 scale ([2]; postemergence, 31 g a.i./ha): 75
AMATU plant response rating, 0 to 100 scale ([2]; postemergence, 62 g a.i./ha): 83
AMATU plant response rating, 0 to 100 scale ([2]; preemergence, 8 g a.i./ha): 20
AMATU plant response rating, 0 to 100 scale ([2]; preemergence, 16 g a.i./ha): 79
AMATU plant response rating, 0 to 100 scale ([2]; preemergence, 31 g a.i./ha): 100
AMATU plant response rating, 0 to 100 scale ([2]; preemergence, 62 g a.i./ha): 100
ZEAMD plant response rating, 0 to 100 scale ([3]; postemergence, 8 g a.i./ha): 3
ZEAMD plant response rating, 0 to 100 scale ([3]; postemergence, 16 g a.i./ha): 5
ZEAMD plant response rating, 0 to 100 scale ([3]; postemergence, 31 g a.i./ha): 9
ZEAMD plant response rating, 0 to 100 scale ([3]; postemergence, 62 g a.i./ha): 10
ZEAMD plant response rating, 0 to 100 scale ([3]; preemergence, 8 g a.i./ha): 0
ZEAMD plant response rating, 0 to 100 scale ([3]; preemergence, 16 g a.i./ha): 0
ZEAMD plant response rating, 0 to 100 scale ([3]; preemergence, 31 g a.i./ha): 0
ZEAMD plant response rating, 0 to 100 scale ([3]; preemergence, 62 g a.i./ha): 0
SETFA plant response rating, 0 to 100 scale ([4]; postemergence, 8 g a.i./ha): 5
SETFA plant response rating, 0 to 100 scale ([4]; postemergence, 16 g a.i./ha): 5
SETFA plant response rating, 0 to 100 scale ([4]; postemergence, 31 g a.i./ha): 8
SETFA plant response rating, 0 to 100 scale ([4]; postemergence, 62 g a.i./ha): 6
SETFA plant response rating, 0 to 100 scale ([4]; preemergence, 8 g a.i./ha): 8
SETFA plant response rating, 0 to 100 scale ([4]; preemergence, 16 g a.i./ha): 64
SETFA plant response rating, 0 to 100 scale ([4]; preemergence, 31 g a.i./ha): 95
SETFA plant response rating, 0 to 100 scale ([4]; preemergence, 62 g a.i./ha): 100
ERICA plant response rating, 0 to 100 scale ([5]; postemergence, 8 g a.i./ha): 0
ERICA plant response rating, 0 to 100 scale ([5]; postemergence, 16 g a.i./ha): 0
ERICA plant response rating, 0 to 100 scale ([5]; postemergence, 31 g a.i./ha): 0
ERICA plant response rating, 0 to 100 scale ([5]; postemergence, 62 g a.i./ha): 5
ERICA plant response rating, 0 to 100 scale ([5]; preemergence, 8 g a.i./ha): 0
ERICA plant response rating, 0 to 100 scale ([5]; preemergence, 16 g a.i./ha): 0
ERICA plant response rating, 0 to 100 scale ([5]; preemergence, 31 g a.i./ha): 0
ERICA plant response rating, 0 to 100 scale ([5]; preemergence, 62 g a.i./ha): 13
AMAPA plant response rating, 0 to 100 scale ([6]; postemergence, 8 g a.i./ha): 20
AMAPA plant response rating, 0 to 100 scale ([6]; postemergence, 16 g a.i./ha): 38
AMAPA plant response rating, 0 to 100 scale ([6]; postemergence, 31 g a.i./ha): 56
AMAPA plant response rating, 0 to 100 scale ([6]; postemergence, 62 g a.i./ha): 74
AMAPA plant response rating, 0 to 100 scale ([6]; preemergence, 8 g a.i./ha): 63
AMAPA plant response rating, 0 to 100 scale ([6]; preemergence, 16 g a.i./ha): 90
AMAPA plant response rating, 0 to 100 scale ([6]; preemergence, 31 g a.i./ha): 100
AMAPA plant response rating, 0 to 100 scale ([6]; preemergence, 62 g a.i./ha): 100
GLXMA plant response rating, 0 to 100 scale ([7]; postemergence, 8 g a.i./ha): 20
GLXMA plant response rating, 0 to 100 scale ([7]; postemergence, 16 g a.i./ha): 29
GLXMA plant response rating, 0 to 100 scale ([7]; postemergence, 31 g a.i./ha): 43
GLXMA plant response rating, 0 to 100 scale ([7]; postemergence, 62 g a.i./ha): 68
GLXMA plant response rating, 0 to 100 scale ([7]; preemergence, 8 g a.i./ha): 0
GLXMA plant response rating, 0 to 100 scale ([7]; preemergence, 16 g a.i./ha): 0
GLXMA plant response rating, 0 to 100 scale ([7]; preemergence, 31 g a.i./ha): 0
GLXMA plant response rating, 0 to 100 scale ([7]; preemergence, 62 g a.i./ha): 0

CCS(=O)(=O)c1cccnc1S(=O)(=O)NC(=O)Nc1nc(OC)cc(OC)n1 [Rimsulfuron, rimsulfuron, reference compound]
AMBEL plant response rating, 0 to 100 scale ([8]; postemergence, 8 g a.i./ha): 40
AMBEL plant response rating, 0 to 100 scale ([8]; postemergence, 16 g a.i./ha): 60
AMBEL plant response rating, 0 to 100 scale ([8]; preemergence, 8 g a.i./ha): 0
AMBEL plant response rating, 0 to 100 scale ([8]; preemergence, 16 g a.i./ha): 43
AMATU plant response rating, 0 to 100 scale ([9]; postemergence, 8 g a.i./ha): 75
AMATU plant response rating, 0 to 100 scale ([9]; postemergence, 16 g a.i./ha): 77
AMATU plant response rating, 0 to 100 scale ([9]; preemergence, 8 g a.i./ha): 51
AMATU plant response rating, 0 to 100 scale ([9]; preemergence, 16 g a.i./ha): 73
ZEAMD plant response rating, 0 to 100 scale ([10]; postemergence, 8 g a.i./ha): 0
ZEAMD plant response rating, 0 to 100 scale ([10]; postemergence, 16 g a.i./ha): 10
ZEAMD plant response rating, 0 to 100 scale ([10]; preemergence, 8 g a.i./ha): 0
ZEAMD plant response rating, 0 to 100 scale ([10]; preemergence, 16 g a.i./ha): 0
SETFA plant response rating, 0 to 100 scale ([11]; postemergence, 8 g a.i./ha): 80
SETFA plant response rating, 0 to 100 scale ([11]; postemergence, 16 g a.i./ha): 97
SETFA plant response rating, 0 to 100 scale ([11]; preemergence, 8 g a.i./ha): 50
SETFA plant response rating, 0 to 100 scale ([11]; preemergence, 16 g a.i./ha): 73
ERICA plant response rating, 0 to 100 scale ([12]; postemergence, 8 g a.i./ha): 50
ERICA plant response rating, 0 to 100 scale ([12]; postemergence, 16 g a.i./ha): 70
ERICA plant response rating, 0 to 100 scale ([12]; preemergence, 8 g a.i./ha): 95
ERICA plant response rating, 0 to 100 scale ([12]; preemergence, 16 g a.i./ha): 98
AMAPA plant response rating, 0 to 100 scale ([13]; postemergence, 8 g a.i./ha): 60
AMAPA plant response rating, 0 to 100 scale ([13]; postemergence, 16 g a.i./ha): 60
AMAPA plant response rating, 0 to 100 scale ([13]; preemergence, 8 g a.i./ha): 33
AMAPA plant response rating, 0 to 100 scale ([13]; preemergence, 16 g a.i./ha): 40
GLXMA plant response rating, 0 to 100 scale ([14]; postemergence, 8 g a.i./ha): 75
GLXMA plant response rating, 0 to 100 scale ([14]; postemergence, 16 g a.i./ha): 93
GLXMA plant response rating, 0 to 100 scale ([14]; preemergence, 8 g a.i./ha): 0
GLXMA plant response rating, 0 to 100 scale ([14]; preemergence, 16 g a.i./ha): 0
